The text below walks through data of US8318798B2, “Therapeutic agent for neurodegenerative disease” (priority 2005, dated 2012).

For test [1], the target named is T1, DJ-1 protein (Homo sapiens, UniProt Q99497).
T1 sequence (Q99497 1-189): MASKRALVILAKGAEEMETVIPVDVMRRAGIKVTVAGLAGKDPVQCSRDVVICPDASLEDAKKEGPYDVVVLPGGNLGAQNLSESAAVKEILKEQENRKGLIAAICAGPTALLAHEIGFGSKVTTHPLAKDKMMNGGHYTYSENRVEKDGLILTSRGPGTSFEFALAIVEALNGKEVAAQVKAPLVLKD
The test can be described thus: Binding to DJ-1 protein by AffinixQ quartz oscillator frequency change. The conditions noted are these: compound fixed on sensor chip; DJ-1 protein vs BSA added (FIG. 11). The source says:
The AffinixQ is an instrument for quantifying interaction between biomolecules at the order of nanograms by changes in frequency of the crystal oscillator. It utilizes the proportional relationship between change in frequency of the quartz oscillator and the weight of the adherings on the surface of the quartz oscillator.
The compound was fixed on top of the sensor chip, which is the oscillator, using an amino coupling reagent. The sensor chip onto which the compound had been fixed was immersed in a measurement vessel filled with 8 mL of PBS (phosphate buffer), and held until the frequency became constant. Following this, 8 μL of 1 mg/mL DJ-1 protein or BSA (bovine serum albumin) was added to the measurement vessel.

In a further test the test system is SH-SY5Y human neurons. Briefly: Suppression of 6-hydroxydopamine-induced cell death of SH-SY5Y human neurons (Cell Counting Kit-8 / MTT assay). Type of test: cell-based. The conditions noted are these: compound 1 μM, 24 h before 100 μM 6-hydroxydopamine, 40 h; compared with control (FIG. 9). The protocol: In this example, the effect of compounds 1 to 8 in suppressing cell death of SH-SY5Y human neurons was examined.
SH-SY5Y human neurons ([…], USA) were plated on a 96-well plate, and cultured to 80% confluency.
Compounds 1 to 8 in sterile aqueous solutions were individually added thereto at a sample concentration of 1 μM, or sterile water was added as a control.
24 hours after the addition of compounds 1 to 8 or sterile water, 6-hydroxydopamine (PBS solvent) (Wako Pure Chemical Industries, Ltd.) was added to each at a 6-hydroxydopamine concentration of 100 μM, or the same amount of PBS (containing no 6-hydroxydopamine) was added. Furthermore, 40 hours after the addition of 6-hydroxydopamine, Cell Counting Kit-8 was added for carrying out an MTT assay.
After 3 hours, a viable cell count was measured by measuring the absorbance at wavelength of 450 nm. For each of compounds 1 to 8 and the control, the viability was obtained from ‘(the viable cell count when 6-hydroxydopamine was added)/(the viable cell count when no 6-hydroxydopamine was added)’.
Compared with the control and compounds 7 and 8, it can be seen that the addition of any one of compounds 1 to 6 enhances the viability.
On the technique in general: Tetrazolium dyes change colour on reduction, which living cells bring about.

The test system of test [2] is rats injected with 6-hydroxydopamine (6-OHDA). Briefly: Methamphetamine-induced rotation of rats injected with 6-OHDA into midbrain left substantia nigra. It counts as in vivo, rat. The following applies: 1 mM compound injected simultaneously with 6 mM 6-OHDA into left substantia nigra; methamphetamine after 9 weeks. The protocol: In this example, compound 1, 5, or 8 was injected into rat midbrain left substantia nigra and the effect thereof was examined. • (1) Either 6 mM of 6-hydroxydopamine (6-OHDA) alone or mixtures of 6 mM of 6-OHDA and 1 mM of each compound was injected into the midbrain left substantia nigra (4.8 mm×1.8 mm, 7.8 mm depth) of rats (Wister rat, male, 250 g). Where the rat was injected with 6 mM of 6-hydroxydopamine (6-OHDA) in midbrain left substantia nigra, the right-side substantia nigra was intact but in the left-side oxidative stress induced the death of dopamine neurons, and the rat rotate in a clockwise direction due to the imbalanced amount of acting dopamine, showing a behavioral abnormality characteristic of Parkinson's disease patients.
After 9 weeks, the rats were injected with methamphetamine (Dainippon Pharma Co., Ltd.), which causes a dopamine release, leading to a release of large amount of dopamine from dopamine neurons into the striatum. Because of the imbalance in the amounts of released dopamine between the left and right substantia nigra the rats started to rotate in a clockwise direction. The rats were placed in a rotameter, and the number of rotations was measured. The total number of rotations over 60 minutes is shown in FIG. 14, and the number of rotations at every 5 minutes over time is shown in FIG. 15. […]

The next test concerns dopamine neurons. The test can be described thus: TH staining of dopamine neurons in rat midbrain substantia nigra after 6-OHDA injection. The conditions noted are these: 1 mM compound injected simultaneously with 6 mM 6-OHDA (FIG. 16). Type of test: in vivo. The protocol: The midbrain substantia nigra (SNpc) was dissected out and fixed in a 100 mM phosphate buffer containing 4% of paraformaldehyde for 2 days, and then submerged in 100 mM phosphate buffer (containing 15% of sucrose and 0.1% of sodium azide). A 20 μm thick slices were prepared using Cryostat, and submerged in a 100 mM phosphate buffer containing 0.3% Triton X-100 (PBS-T).
These brain slices were reacted with anti-tyrosine hydroxylase (TH: a dopamine-biosynthetic enzyme and marker for dopamine neurons, manufactured by Sigma, 1:20,000 dilution) at 4° C. for 3 days, then washed, and reacted with a biotinylated anti-mouse IgG antibody (1:2,000 dilution) at room temperature for 2 hours. Subsequently, avidin peroxidase coloration was carried out using an ABC kit (Vector Laboratories) at room temperature for 1 hour. After washing several times with PBS-T, coloration was carried out by nickel ammonium-containing 3,3′-diaminobenzidine (DAB).
In the left substantia nigra into which only 6-OHDA was injected, TH staining was not observed and thus dopaminergic neuron death was observed. In the right substantia nigra, which was not injected with 6-OHDA, live dopamine neurons were observed (FIG. 16 (1)).

Test [3] deals with T1, DJ-1 protein. The test can be described thus: Suppression of transition of DJ-1 to oxidized form (H2O2 treatment, isoelectric focusing). It counts as biochemical. The following applies: 0.2 mM or 2 mM H2O2, room temperature 1 hour; isoelectric focusing (FIG. 12). The protocol:
In this example, it was confirmed that compound 1 and compound 5 suppressed the transition of DJ-1 to an oxidized form.
0.5 mg of purified DJ-1 protein was dissolved in 1 mL of PBS. 10 μL of 1 mM compound 1, 5, or 7 was added to 500 μL of this DJ-1 protein solution, and rotated at 4° C. for 1 hour. Subsequently, 0.4 or 4 mM hydrogen peroxide (H2O2) was added thereto, the mixture was allowed to stand at room temperature for 1 hour then the hydrogen peroxide concentration became 0.2 mM or 2 mM. Further, dialysis was carried out 3 times with PBS for a total of 4.5 hours, followed by an isoelectric focusing 0.5 μg of the DJ-1 protein . The reagents used in the isoelectric focusing were as follows. • Gel solution for isoelectric focusing: 9.2 M Urea, 2% NP-40, 4% acrylamide, 1% Ampholine (pH 5-8; Amersham Bioscience), 1% Ampholine (pH 3-10; Amersham Bioscience) • Sample Buffer: 5 M Urea, 2 M ThioUrea, 2% NP-40, 5% Glycerin, 5% 2-mercaptoethanol, 1.6% Ampholine (pH 5-8), 0.4% Ampholine (pH 3.5-10) • Protection solution: 8 M Urea, 0.8% Ampholine (pH 5-8), 0.2% • Ampholine (pH 3.5-10) • Electrophoresis Buffer+electrode: 0.02 M Phosphoric acid • −electrode: 0.02 M NaOH • Towbin: 25 mM Tris, 192 mM Glycine

A further test has as its system mitochondrial complex 1. The test can be described thus: Maintenance of mitochondrial Complex 1 activity in 6-hydroxydopamine-treated SH-SY5Y cells. Type of test: cell-based, human. The following applies: compound 1 μM, 24 h before 50 μM 6-hydroxydopamine, 6 h; compared with control (FIG. 13). On the procedure:
In this example, the effect of compounds 1, 5, and 8 in maintaining the activity of mitochondrial complex 1 was examined.
6-Hydroxydopamine induces oxidative stress by degrading the enzymic activity of Complex 1 and thereby causing a functional disorder. It is considered that the compounds identified here would suppress neuronal death due to oxidative stress by preventing deactivation of complex 1. Therefore, changes in activity of complex 1 resulting from addition of the compound was measured.
SH-SY5Y human neurons were plated onto a 10 cm dish and cultured to 80% confluency. Compounds 1, 5, and 8 individually were added at the compound concentration of 1 μM, or sterile water was added. 24 hours after the addition of the compound or sterile water, 6-hydroxydopamine (PBS solvent) was added at a 6-hydroxydopamine concentration of 50 μM, or the same amount of PBS (containing no 6-hydroxydopamine) was added. 6 hours after the addition of 6-hydroxydopamine, the cells were collected. […] After quantifying the protein, 100 μg of the mitochondrial protein was added to a cuvette filled with a reaction buffer, and the total amount was made up to 480 μL. After incubation at 37° C. for 3 minutes, 20 μL of 5 mM NADH was added to the cuvette, and decrease in absorbance at 340 nm was monitored for 4 minutes using an absorptiometer. […]

`CC(=O)O[C@H](CO)[C@H](O)C(O)Cn1cnc2c(N)ncnc21` (some centres unmarked) [compound 4]: the “binding to DJ-1 protein (frequency change)” value (“binding … (frequency change)” for short) on DJ-1 protein [1] was “bind to DJ-1 protein”.
In the case of `CC1(C)OC2C(O1)[C@@H](CO)O[C@H]2n1cnc2c(NC(=O)C(C)(C)C)ncnc21` (some centres unmarked) [compound 7], the “viability (effect in suppressing cell death)” value with SH-SY5Y human neurons is on record as “did not have such effects”.
On to `COCO[C@@H](/C=C/C(=O)OCc1ccccc1)[C@@H](CCO[Si](C)(C)C(C)(C)C)C(Cc1ccccc1)Cc1ccccc1` [compound 8], for which the “effect on behavioral abnormality (number of rotations), in words” value in test [2] is reported as “did not show such effect”. For the same molecule, the “dopaminergic neuronal death in left substantia nigra (TH staining)” value (“dopaminergic neuronal death” for short) with dopamine neurons is given as “did not have such effect”. Moreover, the “viability (effect in suppressing cell death)” value in the test on SH-SY5Y human neurons was “did not have such effects”.
As to `NC(=O)C(CS(N)(=O)=O)NC(=O)C(Cc1ccccc1)NC(=O)CNC(=O)OCc1ccccc1` (centres unmarked) [compound 6], the “binding … (frequency change)” value on DJ-1 protein [1] is “bind to DJ-1 protein”.
On the same count and under the same terms, the entry for `CS(=O)(=O)O[C@H]1CO[C@@H](Cn2cnc3c(N)ncnc32)C1O` (some centres unmarked) [compound 2] is “bind to DJ-1 protein”.
In the case of `CC1(C)OC2C(=O)O[C@@H](n3cnc4c(N)ncnc43)C2O1` (some centres unmarked) [compound 1], the “binding … (frequency change)” value at DJ-1 protein [1] is “bind to DJ-1 protein”. Also, on DJ-1 protein [3], the “transition of DJ-1 protein to an oxidized form” value is reported as “suppressed the transition of DJ-1 protein to an oxidized form”. Moreover, the “dopaminergic neuronal death” value in the test with dopamine neurons is listed as “neuronal death was considerably suppressed”. In the test with mitochondrial complex 1, the “Complex 1 activity” value is recorded as “Complex 1 activity was maintained”.
As to `COc1ccc(CC(=O)NCCc2cc(OC)c3c(c2)OCO3)cc1OCc1ccccc1` [compound 5], the “transition of DJ-1 protein to an oxidized form” value on DJ-1 protein [3] was “suppressed the transition of DJ-1 protein to an oxidized form”. Further, in the test on dopamine neurons, the “dopaminergic neuronal death” value is listed as “neuronal death was considerably suppressed”. For the same molecule, the “Complex 1 activity” value in the test on mitochondrial complex 1 is given as “Complex 1 activity was maintained”.
